According to patent US11576887B2, “Nitro-oleic acid controlled release platform to induce regional angiogenesis in abdominal wall repair” (University of Pittsburgh—Of the Commonwealth System of …, priority 2017, dated 2023):
Entries after “also recorded” stand apart in the source; their conditions may differ.

Experiments:
[1] = test system: rat abdominal wall partial thickness defect; assay: Blood vessel morphological assessment (MT staining, CD31/αSMA immunofluorescence) of 8 wk explants; assay type: in vivo, Sprague-Dawley rats; conditions: rat abdominal wall defect model, 8 wk end-point
Text: Adult female Sprague-Dawley rats 10-12 wk old, ˜250 g in weight (Harlan Sprague Dawley Inc., Indianapolis, Ind., USA) were used for the abdominal wall repair procedure. The experiment was designed to assess the effects of NO2-FA controlled release on angiogenesis. Therefore, a partial wall defect was preferred to a full wall defect model, this enabled evaluation of the impact of drug release on the tissue underneath the abdominal wall patch. The surgical protocol was adapted from a procedure previously established Lai et al. Peritoneal Regeneration Induced by an Acellular Bovine Pericardial Patch in the Repair of Abdominal Wall Defects. Journal of Surgical Research 127, 85, 2005. In brief, inhalation of 1.25-2.5% (maintenance-induction) isoflurane with 100% oxygen was adopted as anesthetic. The skin was shaved and the surgical field was prepared by sterilization with povidone-iodine solution, the rats were positioned in dorsal recumbency on a heating blanket, the operating environment was kept sterile during the procedure. […]
Regional angiogenesis was investigated by combining morphological with topological information. Morphological assessment included quantification of blood vessel/mm^2 and vessel type and was performed with two distinct experiments: histological (FIG. 7, 9) and immunofluorescence assessment (FIG. 8). […]

[2] = test system: rat abdominal wall partial thickness defect; assay: Rat abdominal wall partial thickness defect repair, histological assessment of 8 wk explants; assay type: in vivo, Sprague-Dawley rats
Protocol: At 8 wk post-implantation samples were retrieved, fixed in 10% formalin solution for ≥24 h, embedded in paraffin and serially sectioned into specimens 10 μm in thickness. Next, hematoxylin and eosin (H&E) and Masson' trichrome (MT) staining of pre implantation scaffolds and explants were utilized to evaluate: polymeric fiber volume, newly formed tissue, cellular infiltration, and scar area (FIG. 4-FIG. 5). In order to assess the foreign body response a custom-made algorithm, developed in Matlab (Mathwork, Natick Mass.), was utilized to segment and quantify collagen rich areas (FIG. 4G-4H). The algorithm is based on a two-phase iterative process known as k means clustering. In step one, given an integer k and an array of data, k cluster centroids were identified minimizing the total squared Euclidean distance between each pixel and its closest RGB centroid. With k=4, the algorithm segmented each image into 4 color groups corresponding to background, muscle tissue, collagen or de-novo ECM, and scaffold.
At the macroscopic scale, cross sections were utilized to quantify explant thickness. NIH Image J was utilized to identify the explant central line, draw equi-spaced segments (n=10) perpendicular to this line intersecting the abdominal wall border, and calculate the mean of their lengths. This measure was coupled with in situ explant visual inspection (FIG. 6). […]

[3] = NO2-OA controlled release in vitro from PLGA microparticles and scaffolds in lipase solution; assay type: physicochemical
Protocol: NO2-OA in microparticles and scaffolds was extracted by dissolving the samples in 200 μL, HFIP with 0.5 pmol NO2−^[13C18]OA internal standard, and extracted three times with 1 mL methanol, each time vortexing and centrifuging at 15,000 xg for 10 min at 4° C. Then, the collected methanol was dried under a stream of nitrogen, reconstituted in 100 μL methanol and analyzed by high performance liquid chromatography-electrospray ionization-tandem mass spectrometry (HPLC-ESI-MS/MS). Controlled release (n=3) of NO2-OA in microparticles (FIG. 1D) and scaffolds (FIGS. 3B) was studied in 50 mM phosphate buffer, pH 7.4 with 0.2 mg/mL porcine lipase at 37° C. Aliquots were collected at various time points, spiked with 15 pmol NO2−^[13C18]OA, 1 mL acetonitrile was added and then, samples were vortexed, centrifuged and analyzed by HPLC-ESI-MS/MS. At each time point a fresh incubating solution was utilized.
Analysis of NO2-OA was performed by HPLC-ESI-MS/MS. […] NO2-OA was analyzed in negative mode with the following parameters: declustering potential (DP)—75V, collision energy (CE)—35 eV, desolvation temperature of 700° C., and a multiple reaction monitoring (MRM) transition 326.3/46. Quantification of NO2-OA in samples was performed by stable isotopic dilution analysis using a NO2-OA calibration curve in the presence of NO2-[^13C18]OA internal standard (MRM 344.3/46).

CCCCCCCC/C(=C\CCCCCCCC(=O)O)[N+](=O)[O-] [NO2-OA, 10-nitro-9-trans-octadecenoic acid]
regional angiogenesis / neovascularization [1]: additional effect; also recorded: promotes neovascularization; also recorded: significantly improved regional angiogenesis; also recorded: significantly enhanced regional angiogenesis
abdominal wall thickness of explants ([2]; 8 wk, compared with healthy native rat abdominal wall): significantly increased wall thickness
fibrotic response ([2]; rat abdominal wall defect model): significantly reduce fibrotic response
NO2-OA release profile from PLGA microparticles ([3]; 50 mM phosphate buffer pH 7.4, 0.2 mg/mL porcine lipase, 37° C, effect of microparticle size): sigmoidal
duration of controlled NO2-OA release from PLGA microparticles ([3]; NO2-OA (1mM), particle size 1-50 μm range): up to 7 days
